One assay concerns the target Tyk2 (Homo sapiens, UniProt P29597). In words: Inhibition of JAK kinase activity, EZ Reader microfluidic phosphorylation of peptide substrate: Tyk2. In kind it is biochemical. As to conditions: Tyk2 kinase 1 nM; highest final concentration 10 μM, 1:3 serial dilution, 8 points, duplicates. The text has this:
(§1) EZ Reader available from PerkinElmer can be used for detecting the phosphorylation of polypeptide substrates catalyzed by kinases. This device is based on microfluidic separation technology, and can directly detect fluorescence labeled substrates and products. The separation step is achieved in a microfluidic chip by controlling the pressure and electric field intensity. In a kinase experiment, the product conversion rate is generally controlled at 20-30%. This biological assay method is used for identifying the inhibitory effect of the compounds on JAK.
(§2) The compound powder was dissolved in DMSO, sealed and stored in a refrigerator at −20° C. The in-house compound Ref1 was used as a positive control for testing of JAK1, JAK2 and Tyk2, and Ref2 was used as a positive control for testing of JAK3.
(§3) • S2.1. 1M HEPES buffer: 0.5M HEPES free acid and 0.5M HEPES sodium salt are weighed, added into ultrapure water for dissolution, brought to a desired volume, filtered and stored in a refrigerator at 4° C. • S2.2. 40 mM ATP solution: dissolved in a 50 mM HEPES buffer solution, prepared into 40 mM, aliquoted, and cryopreserved in a refrigerator at −20° C. • S2.3. 0.5% Tween 20: 100% Tween 20 was diluted with ultrapure water, and stored in a refrigerator at 4° C. • S2.4. 35% bovine serum albumin: a 35% bovine serum albumin solution is prepared in ultrapure water, aliquoted, and stored in a refrigerator at −20° C. • S2.5. 1M dithiothreitol solution: dithiothreitol is formulated into a 1M solution with ultrapure water, aliquoted, and stored in a refrigerator at −20° C. • S2.6. 0.5 mM Jaktide Peptide substrate solution: it is dissolved in 50 mM HEPES to 0.5 mM, aliquoted, and stored in a refrigerator at −20° C. • S2.7. 0.5 mM IRStide Peptide substrate solution: it is dissolved in 50 mM HEPES to 0.5 mM, aliquoted, and stored in a refrigerator at −20° C. • S2.8. Assay Buffer: 20 mM HEPES buffer, pH 7.4, 10 mM magnesium chloride, 0.01% bovine serum albumin BSA, 0.0005% Tween-20, and a 1 mM dithiothreitol solution. • S2.9. Stop Buffer: 180 mM HEPES buffer, 20 mM ethylenediamine tetraacetic acid (EDTA), and 0.2% Coating Reagent 3. • S2.10. Separation Buffer: 100 mM HEPES buffer, 10 mM EDTA, 0.0005% Tween 20, 0.1% Coating Reagent 3, and 1% dimethyl sulfoxide. 3. Experimental Procedures • S3.1. Preparation of compound plate
(§4) The compound is dissolved in dimethyl sulfoxide to 10 mM, a certain volume is taken and diluted to 0.6 mM, 10 μl of the diluted 0.6 mM solution is taken and added into a 384 microplate or 1:3 serial dilution, with a total of 8 concentration points. • S3.2. Compound layout
(§5) • positive control (HPE1): Ref1, final concentration: 10 μM • positive control (HPE1): Ref2, final concentration: 10 μM • negative control (ZPE): DMSO, with a final concentration of 1.6% • Compound: the highest final concentration at 10 μM, 1:3 serial dilution, with 8 concentration points and in duplicates. 4. Experimental operation steps • S4.1. the experimental plate was added with 250 nl of the compound per well with ECHO, and centrifuged at 1,000 rpm for 1 minute; • S4.2. the precipitate was added with 5 μl of the experimental buffer, and shaken for several seconds to fully dissolve the compound; • S4.3. the solution was added with 5 μl of a 3× substrate solution, as well as 5 μl of a 3× kinase solution, and centrifuged at 800 rpm for 1 minute; • S4.4. The final concentrations of JAK1, JAK2, JAK3 and Tyk2 kinases in the reaction system are 20, 1, 1 and 1 nM, respectively. • S4.5. the reaction system is incubated at room temperature, wherein the incubation time of each kinase is different, and there are differences in incubation time of different batches of kinases. • S4.6. When the reaction reaches 20%-30%, the reaction system is added with 15 μl of the stop buffer to terminate the reaction, and centrifuged at 1,000 rpm for 2 minutes. • S4.7. The precipitate was placed onto a EZ Reader for plate reading. • S4.8. […]

For another assay, the target named is JAK1 (Homo sapiens, UniProt P23458). In words: Inhibition of JAK kinase activity, EZ Reader microfluidic phosphorylation of peptide substrate: JAK1. In kind it is biochemical. As to conditions: JAK1 kinase 20 nM; highest final concentration 10 μM, 1:3 serial dilution, 8 points, duplicates.
Chain of JAK1 (P23458 whole entry): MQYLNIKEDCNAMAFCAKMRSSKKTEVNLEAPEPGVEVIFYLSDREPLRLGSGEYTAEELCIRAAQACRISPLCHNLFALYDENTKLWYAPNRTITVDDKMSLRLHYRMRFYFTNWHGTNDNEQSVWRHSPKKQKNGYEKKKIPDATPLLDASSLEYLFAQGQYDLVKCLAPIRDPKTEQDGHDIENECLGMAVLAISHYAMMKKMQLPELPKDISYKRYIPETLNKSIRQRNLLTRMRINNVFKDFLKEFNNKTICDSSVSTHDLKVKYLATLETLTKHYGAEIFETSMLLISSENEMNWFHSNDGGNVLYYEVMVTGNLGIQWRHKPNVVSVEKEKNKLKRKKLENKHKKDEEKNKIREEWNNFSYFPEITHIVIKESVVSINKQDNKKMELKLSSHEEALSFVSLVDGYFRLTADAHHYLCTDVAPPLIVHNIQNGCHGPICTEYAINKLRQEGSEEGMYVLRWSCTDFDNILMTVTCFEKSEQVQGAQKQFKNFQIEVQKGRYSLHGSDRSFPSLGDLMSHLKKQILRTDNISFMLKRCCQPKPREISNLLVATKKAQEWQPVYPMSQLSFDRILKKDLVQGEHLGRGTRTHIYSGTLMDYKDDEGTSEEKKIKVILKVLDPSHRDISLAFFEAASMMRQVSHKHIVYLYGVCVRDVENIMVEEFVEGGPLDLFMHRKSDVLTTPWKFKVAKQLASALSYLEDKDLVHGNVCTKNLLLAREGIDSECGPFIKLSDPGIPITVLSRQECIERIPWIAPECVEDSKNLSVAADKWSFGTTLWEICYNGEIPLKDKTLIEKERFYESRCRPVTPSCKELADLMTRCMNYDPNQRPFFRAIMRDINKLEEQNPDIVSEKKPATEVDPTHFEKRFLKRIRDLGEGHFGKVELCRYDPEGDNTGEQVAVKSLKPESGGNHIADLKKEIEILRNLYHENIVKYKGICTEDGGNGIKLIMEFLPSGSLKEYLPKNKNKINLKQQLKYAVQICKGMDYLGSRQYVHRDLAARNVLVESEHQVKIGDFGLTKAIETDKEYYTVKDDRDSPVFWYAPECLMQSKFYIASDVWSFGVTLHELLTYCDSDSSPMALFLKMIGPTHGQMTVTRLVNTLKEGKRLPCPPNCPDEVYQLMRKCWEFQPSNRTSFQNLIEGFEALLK
Excerpt: as §1, §2, §3, §4, §5

In patent publication US12509447B2, “Small molecule compound” (Technoderma Medicines Pte Ltd, priority 2019, dated 2025) one finds IC50 data, which are given here for 19 compounds.

A value given as a limit tells only on which side of the number the result lay.

Chain of Tyk2 (P29597 whole entry): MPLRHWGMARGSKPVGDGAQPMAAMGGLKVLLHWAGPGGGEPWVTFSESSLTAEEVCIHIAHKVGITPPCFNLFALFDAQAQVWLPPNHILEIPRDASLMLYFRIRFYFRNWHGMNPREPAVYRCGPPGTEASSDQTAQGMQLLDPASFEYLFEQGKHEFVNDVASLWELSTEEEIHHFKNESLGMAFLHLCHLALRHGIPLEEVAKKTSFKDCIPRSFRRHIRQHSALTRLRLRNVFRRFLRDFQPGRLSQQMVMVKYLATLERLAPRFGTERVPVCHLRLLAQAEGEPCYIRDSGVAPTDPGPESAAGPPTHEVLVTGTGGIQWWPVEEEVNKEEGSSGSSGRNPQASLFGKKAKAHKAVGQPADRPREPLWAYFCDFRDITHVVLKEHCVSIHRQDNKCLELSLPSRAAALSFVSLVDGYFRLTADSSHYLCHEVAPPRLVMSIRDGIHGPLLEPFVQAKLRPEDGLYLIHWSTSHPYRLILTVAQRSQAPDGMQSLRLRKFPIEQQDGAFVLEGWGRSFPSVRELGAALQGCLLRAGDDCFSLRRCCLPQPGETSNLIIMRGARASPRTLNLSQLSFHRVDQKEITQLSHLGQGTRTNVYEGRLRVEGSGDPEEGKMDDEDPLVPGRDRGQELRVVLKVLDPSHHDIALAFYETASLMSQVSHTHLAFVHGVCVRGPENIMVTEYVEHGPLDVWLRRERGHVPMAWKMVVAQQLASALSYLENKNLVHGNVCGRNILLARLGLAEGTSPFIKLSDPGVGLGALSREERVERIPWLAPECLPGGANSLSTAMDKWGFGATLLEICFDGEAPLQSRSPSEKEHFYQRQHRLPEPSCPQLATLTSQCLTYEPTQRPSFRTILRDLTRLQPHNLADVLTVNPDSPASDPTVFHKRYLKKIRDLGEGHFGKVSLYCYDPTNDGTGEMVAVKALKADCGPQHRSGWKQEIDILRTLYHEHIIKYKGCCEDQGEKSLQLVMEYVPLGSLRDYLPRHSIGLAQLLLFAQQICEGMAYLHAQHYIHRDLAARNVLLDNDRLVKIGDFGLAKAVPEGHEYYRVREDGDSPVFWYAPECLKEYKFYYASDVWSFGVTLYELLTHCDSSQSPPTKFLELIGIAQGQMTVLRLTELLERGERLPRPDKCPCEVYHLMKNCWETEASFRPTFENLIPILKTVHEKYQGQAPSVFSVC

One may read the IC50 as the midpoint of a concentration-inhibition curve. Read a low IC50 as higher potency. Take `COCC(=O)N1CC(CC#N)(n2cc(-c3ccnc(Nc4cnn(C)c4)n3)cn2)C1` [TDM-180765, 2-(1-(2-methoxyacetyl)-3-(4-(2-((1-methyl-1H-pyrazol-4-yl)amino)pyrimidin-4-yl)-1H-pyrazol-1-yl)azetidin-3-yl)acetonitrile]: the IC50 at Tyk2 and on JAK1 was 1 to 10 µM throughout.

In the case of `COCC(=O)N1CC(CC#N)(n2ccc(-c3ccnc(Nc4cnn(C)c4)n3)c2)C1` [TDM-180769, 2-(1-(2-methoxyacetyl)-3-(3-(2-((1-methyl-1H-pyrazol-4-yl)amino)pyrimidin-4-yl)-1H-pyrrol-1-yl)azetidin-3-yl)acetonitrile], the IC50 at Tyk2 and on JAK1 was 1 to 10 µM each time.

For the compound `Cn1cc(Nc2nccc(-c3ccn(C4(CC#N)CN(C(=O)CO)C4)c3)n2)cn1` [TDM-180786], the concentration for half-maximal inhibition (IC50) on Tyk2 and on JAK1 was 1 to 10 µM each time.

In the case of `Cn1cc(Nc2nccc(-c3cnn(C4(CC#N)CN(C(=O)CO)C4)c3)n2)cn1` [TDM-180810, 2-(1-(2-hydroxyacetyl)-3-(4-(2-((1-methyl-1H-pyrazol-4-yl)amino)pyrimidin-4-yl)-1H-pyrazol-1-yl)azetidin-3-yl)acetonitrile], the IC50 at Tyk2 and on JAK1 was 1 to 10 µM throughout.

Consider `Cn1cc(Nc2nccc(-c3ccn(C4(CC#N)CN(C(=O)C5CC5)C4)n3)n2)cn1` [TDM-180858, 2-(1-(cyclopropanecarbonyl)-3-(3-(2-((1-methy 1-1H-pyrazol-4-yl)amino)pyrimidin-4-yl)-1H-pyrazol-1-yl)azetidinpyridin-3-yl)acetonitrile], for which the half-maximal inhibitory concentration (IC50) at Tyk2 and against JAK1 was 1 to 10 µM throughout.

Consider `Cn1cc(Nc2nccc(-c3ccn(C4(CC#N)CN(C(=O)C5CC5(F)F)C4)n3)n2)cn1` (centres unmarked) [TDM-180859, 2-(1-(2,2-difluorcyclopropanecarbonyl)-3-(3-(2-((1-methyl-1H-pyrazol-4-yl)amino)pyrimidin-4-yl)-1H-pyrazol-1-yl)azetidin-3-yl)acetonitrile], for which the IC50 on Tyk2 and on JAK1 was 0.1 to 1 µM in each case.

Turning to `Cn1cc(Nc2nccc(-c3ccn(C4(CC#N)CN(C(=O)CC(F)(F)F)C4)n3)n2)cn1` [TDM-180860, 2-(3-(3-(2-((1-methyl-1H-pyrazol-4-yl)amino)pyrimidin-4-yl)-1H-pyrazol-1-yl)-1-(3,3,3-trifluoropropionyl)azetidin-3-yl)acetonitrile], the IC50 at Tyk2 and against JAK1 was 0.1 to 1 µM each time.

As to `Cn1cc(Nc2nccc(-c3ccn(C4(CC#N)CN(C(=O)CC#N)C4)n3)n2)cn1` [TDM-180861, 3-(3-(cyanomethyl)-3-(3-(2-((1-methyl-1H-pyrazol-4-yl)amino)pyrimidin-4-yl)-1H-pyrazol-1-yl)azetidinpiperazin-1-yl)-3-oxypropionitrile], the IC50 against Tyk2 and against JAK1 was 1 to 10 µM throughout.

In the case of `Cn1cc(Nc2nccc(-c3ccn(C4(CC#N)CN(S(=O)(=O)CC(F)(F)F)C4)c3)n2)cn1` [TDM-180866, 2-(3-(3-(2-((1-methyl-1H-pyrazol-4-yl)amino)pyrimidin-4-yl)-1H-pyrrol-1-yl)-1-((2,2,2-trifluoroethyl)sulfonyl)azetidin-3-yl)acetonitrile], the IC50 against Tyk2 and against JAK1 was < 0.1 µM throughout.

Turning to `Cn1cc(Nc2nccc(-c3ccc(C4(CC#N)CN(C(=O)CC#N)C4)cc3)n2)cn1` [TDM-180871, 3-(3-(cyanomethyl)-3-(4-(2-((1-methyl-1H-pyrazol-4-yl)amino)pyrimidin-4-yl)phenyl)azetidin-1-yl)-3-oxopropionitrile], the IC50 against Tyk2 and on JAK1 was 0.1 to 1 µM each time.

Take `Cn1cc(Nc2nccc(-c3ccc(C4(CC#N)CN(C(=O)C5CC5(F)F)C4)cc3)n2)cn1` (centres unmarked) [TDM-180872, 2-(1-(2,2-difluorocyclo-1-carbonyl)-3-(4-(2-((1-methyl-1H-pyrazol-4-yl)amino)pyrimidin-4-yl)phenyl)azetidin-3-yl)acetonitrile]: the 50% inhibitory concentration (IC50) on Tyk2 and on JAK1 was 0.1 to 1 µM throughout.

Take `Cn1cc(Nc2nccc(-c3ccc(C4(CC#N)CN(C(=O)CC(F)(F)F)C4)cc3)n2)cn1` [TDM-180873, 2-(3-(4-(2-((1-methyl-1H-pyrazol-4-yl)amino)pyrimidin-4-yl)phenyl)-1-(3,3,3-trifluoropropanol)azetidin-3-yl)acetonitrile]: the IC50 on Tyk2 and against JAK1 was 0.1 to 1 µM each time.

`Cn1cc(Nc2nccc(-c3ccc(C4(CC#N)CN(C(=O)C5CC5)C4)cc3)n2)cn1` [TDM-180880, 2-(1-(cyclopropanecarbonyl)-3-(4-(2-((1-methyl-1H-pyrazol-4-yl)amino)pyrimidin-4-yl)phenyl)azetidin-3-yl)acetonitrile]: the IC50 against Tyk2 and at JAK1 was 1 to 10 µM each time.

Take `Cn1cc(Nc2nccc(-c3ccn(C4(CC#N)CN(S(=O)(=O)C5CCOCC5)C4)n3)n2)cn1` [TDM-180912, 2-(3-(3-(2-((1-methyl-1H-pyrazol-4-yl)amino)pyrimidin-4-yl)-1H-pyrazol-1-yl)-1-((tetrahydro-2H-pyran-4-yl)sulfonyl)azetidin-3-yl)acetonitrile]: the IC50 against Tyk2 lay within 1 to 10 µM; against JAK1, 0.1 to 1 µM.

Consider `Cn1cc(Nc2nccc(-c3ccn(C4(CC#N)CN(S(=O)(=O)C5CC5)C4)n3)n2)cn1` [TDM-180915, 2-(1-(cyclopropylsulfonyl)-3-(3-(2-((1-methyl-1H-pyrazol-4-yl)amino)pyrimidin-4-yl)-1H-pyrazol-1-yl)azetidinpyridin-3-yl)acetonitrile], for which the IC50 on Tyk2 and against JAK1 was 0.1 to 1 µM throughout.

Take `CCCS(=O)(=O)N1CC(CC#N)(n2ccc(-c3ccnc(Nc4cnn(C)c4)n3)n2)C1` [TDM-180916, 2-(3-(3-(2-((1-methyl-1H-pyrazol-4-yl)amino)pyrimidin-4-yl)-1H-pyrazol-1-yl)-1-(propylsulfonyl)azacyclobutanpyridin-3-yl)acetonitrile]: the values for the half-inhibitory concentration (IC50) against Tyk2 and against JAK1 were 1 to 10 µM and 0.1 to 1 µM, respectively.

As to `Cn1cc(Nc2nccc(-c3ccn(C4(CC#N)CN(S(=O)(=O)CC(F)(F)F)C4)n3)n2)cn1` [TDM-180918, 2-(3-(3-(2-((1-methyl-1H-pyrazol-4-yl)amino)pyrimidin-4-yl)-1H-pyrazol-1-yl)-1-((2,2,2-trifluoroethyl)sulfonyl)azetidin-3-yl)acetonitrile], the half-maximal inhibitory concentration (IC50) against Tyk2 and at JAK1 was 1 to 10 µM throughout.

On to `CCS(=O)(=O)N1CC(CC#N)(n2ccc(-c3ccnc(Nc4cnn(C)c4)n3)n2)C1` [TDM-180922, 2-(1-(ethylsulfonyl)-3-(3-(2-((1-methyl-1H-pyrazol-4-yl)amino)pyrimidin-4-yl)-1H-pyrazol-1-yl)azetidinpyridin-3-yl)acetonitrile], for which the IC50 against Tyk2 and against JAK1 was 0.1 to 1 µM throughout.

As for `Cn1cc(Nc2nccc(-c3cnn(C4(CC#N)CN(S(=O)(=O)CCCCl)C4)c3)n2)cn1` [TDM-180925, 2-(1-((3-chloropropyl)sulfonyl)-3-(4-(2-((1-methyl-1H-pyrazol-4-yl)amino)pyrimidin-4-yl)-1H-pyrazol-1-yl)azetidin-3-yl)acetonitrile], the concentration for half-maximal inhibition (IC50) on Tyk2 and on JAK1 was 0.1 to 1 µM throughout.
